This assay has as its system Plasmopara viticola. Briefly: Test Example 1: spray test on grape seedlings inoculated with Plasmopara viticola (protective value). In kind it is in vivo, Plasmopara viticola on grape (variety: Berry A). To be noted: single active ingredient, wettable powder sprayed on grape seedlings before inoculation, assessed after one night plus 7 days; for pest or weed control at 50 ppm: Plasmopara viticola, 168 h, read-out: Actual protective value; for Actual protective value: 50 ppm. The protocol:
Next, it is shown that the present invention compositions have an excellent controlling activity against plant diseases as test example. Generally, an expected controlling value, when two active ingredient compounds are mixed and applied, can be calculated by the Colby's formula described below. E=X+Y−(X×Y)/100 • X: protective value (%) when treatment is carried out by using an active ingredient compound A at the concentration of m ppm. • Y: protective value (%) when treatment is carried out by using an active ingredient compound B at the concentration of n ppm • E: protective value (%) when treatment is carried out by using the active ingredient compound A at the concentration of m ppm and the active ingredient compound B at the concentration of n ppm (hereinafter referred to as “expected protective value”) And, generally speaking, if actual protective value (%) when treatment is carried out by actually mixing two kinds of active ingredient compounds is not less than the expected protective value (%), it can be said that there is a mixing effect.
Sandy loam soil was compacted in a plastic pot, and a grape (variety: Berry A) was seeded and grown in a green house for 40 days. The test drug formulated to wettable powder according to Formulation Example 5, then, diluted with water to provide prescribed concentration, and these diluted solutions were sprayed onto stems and leaves so as to give sufficient adhesion on the surface of grape leaves. After that, a suspension of zoosporangia of Plasmopara viticola was inoculated by spraying to stems and leaves of the grape seedling. After inoculation, the grape seedling was first grown for one night at 23° C. under humid, then further grown for 7 days in the green house. Then, the ratio of diseased area (%) of Plasmopara viticola on stems and leaves of the grape seedling was investigated and the actual protective value was obtained according to the formula described below form the investigated result. protective value (%)={[the ratio of diseased area of non treated plant (%)−the ratio of diseased area of treated plant (%)/]/[the ratio of diseased area of non treated plant (%)]}×100

Drawing on US20050282888A1, “Fungicidal composition” (Sumitomo Chemical Company, Limited, priority 2004, published 2005), this text covers pest or weed control and Actual protective value for 30 molecules.

`C#CCOc1ccc(CCC(=O)NCc2ccc(C)cc2)cc1OC` [(I-1), N-(4-methylbenzyl)-3-{3-methoxy-4-(2-propynyloxy)phenyl}pro panamide]: the pest or weed control at 50 ppm turned out to be 100%. As for `C#CCOc1ccc(CCC(=O)NCc2ccc(C)c(C)c2)cc1OC` [(I-2)], the Actual protective value was 100%. In the case of `C#CCOc1ccc(CCC(=S)NCc2ccc(C)cc2)cc1OC` [(I-3), N-(4-methylbenzyl)-3-(3-methoxy-4-(2-propynyloxy)phenyl}pro panthioamide], the pest or weed control at 50 ppm was 100%. Same read-out and setting: the figure for `C#CCOc1ccc(CCC(=S)NCc2ccc(C)c(C)c2)cc1OC` [(I-4), N-(3,4-dimethylbenzyl)-3-{3-methoxy-4-(2-propynyloxy)phenyl}propanthioamide] is 100%; for `C#CCOc1ccc(CCC(=O)NC(C#N)c2ccccc2)cc1OC` (stereo not drawn) [(I-5), N-(1-phenyl-1-cyanomethyl)-3-{3-methoxy-4-(2-propynyloxy)phenyl}propanamide] it is 100%; for `C#CCOc1ccc(CCC(=O)NC(C#N)c2ccc(C)cc2)cc1OC` (stereo not drawn) [(I-6), N-{1-(4-methylphenyl)-1-cyanomethyl)-3-(3-methoxy-4-(2-propynyloxy)phenyl}propanamide] it is 100%. On to `CCOc1ccc(CCC(=O)NC(C#N)c2ccc(C)cc2)cc1OC` (stereo not drawn) [(I-7), N-{1-(4-methylphenyl)-1-cyanomethyl}-3-(3-methoxy-4-ethoxyphenyl)propanamide], for which the pest or weed control at 50 ppm was found to be 100%. Same read-out and setting: the figure for `C#CCOc1ccc(CCC(=O)NCc2ccc(CC)cc2)cc1OC` [(I-8), N-(4-ethylbenzyl)-3-{3-methoxy-4-(2-propynyloxy)phenyl}prop anamide] is 100%; for `C#CCOc1ccc(CCC(=O)NC(C#N)c2ccc(CC)cc2)cc1OC` (stereo not drawn) [(I-9), N-{1-(4-ethylphenyl)-1-cyanomethyl)-3-(3-methoxy-4-(2-propynyloxy)phenyl)propanamide] it is 100%. For `C#CCOc1ccc(CCC(=O)NCc2ccc(Cl)cc2)cc1OC` [(I-10), N-(4-chlorobenzyl)-3-(3-methoxy-4-(2-propynyloxy)phenyl}pro panamide], the pest or weed control at 50 ppm was determined as 100%. Still for that read-out and setting: the figure for `C#CCOc1ccc(CCC(=O)NCc2ccc(Cl)c(Cl)c2)cc1OC` [(I-11), N-(3,4-dichlorobenzyl)-3-{3-methoxy-4-(2-propynyloxy)phenyl}propanamide] is 100%. Turning to `C#CCOc1ccc(CCC(=O)NCc2ccc(Cl)cc2)cc1OCC` [(I-12), N-(4-chlorobenzyl)-3-{3-ethoxy-4-(2-propionyloxy)phenyl}pro panamide], the Actual protective value was 100%. In the case of `C#CCOc1ccc(CCC(=S)NCc2ccc(Cl)cc2)cc1OC` [(I-13), N-(4-chlorobenzyl)-3-(3-methoxy-4-(2-propynyloxy)phenyl}pro panthioamide], the pest or weed control at 50 ppm worked out at 100%. On the same count and under the same terms, the figure for `C#CCOc1ccc(CCC(=S)NCc2ccc(Cl)c(Cl)c2)cc1OC` [(I-14), N-(3,4-dichlorobenzyl)-3-{3-methoxy-4-(2-propynyloxy)phenyl}propanthioamide] is 100%. On the same count and under the same terms, the figure for `C#CCOc1ccc(CCC(=S)NCc2ccc(Cl)cc2)cc1OCC` [(I-15), N-(4-chlorobenzyl)-3-(3-ethoxy-4-(2-propynyloxy)phenyl)prop anthioamide] is 100%. Take `C#CCOc1ccc(CCC(=O)NC(C#N)c2ccc(Cl)cc2)cc1OC` (stereo not drawn) [(I-16), N-{1-(4-chlorophenyl)-1-cyanomethyl}-3-{3-methoxy-4-(2-propynyloxy)phenyl}propanamide]: the pest or weed control at 50 ppm was 100%. Still for that read-out and setting: the figure for `CCOc1ccc(CCC(=O)NC(C#N)c2ccc(Cl)cc2)cc1OC` (stereo not drawn) [(I-17), N-{1-(4-chlorophenyl)-1-cyanomethyl)-3-(3-methoxy-4-ethoxyphenyl)propanamide] is 100%. With `C#CCOc1ccc(CCC(=O)NCc2ccc(Br)cc2)cc1OC` [(I-18)], the Actual protective value came to 100%. On to `C#CCOc1ccc(CCC(=S)NCc2ccc(Br)cc2)cc1OC` [(I-19), N-(4-bromobenzyl)-3-{3-methoxy-4-(2-propynyloxy)phenyl)prop anthioamide], for which the pest or weed control at 50 ppm was 100%.

Regarding `C#CCOc1ccc(CCC(=O)NC(C#N)c2ccc(Br)cc2)cc1OC` (stereo not drawn) [(I-20), N-{1-(4-bromophenyl)-1-cyanomethyl}-3-(3-methoxy-4-(2-propynyloxy)phenyl}propanamide], the pest or weed control at 50 ppm came to 100%. Take `CCOc1ccc(CCC(=O)NC(C#N)c2ccc(Br)cc2)cc1OC` (stereo not drawn) [(I-21)]: the Actual protective value is 100%. As for `C#CCOc1ccc(CCC(=O)NCc2ccc3c(c2)CCC3)cc1OC` [(I-22), N-{(indan-5-yl)methyl}-3-{3-methoxy-4-(2-propynyloxy)phenyl}propanamide], the pest or weed control at 50 ppm was 100%.

As for `C#CCOc1ccc(CCC(=S)NCc2ccc3c(c2)CCC3)cc1OC` [(I-23), N-(indan-5-ylmethyl)-3-(3-methoxy-4-(2-propynyloxy)phenyl)p ropanthioamide], the pest or weed control at 50 ppm amounted to 100%. As for `C#CCOc1ccc(CCC(=O)NC(C#N)c2ccc3c(c2)CCC3)cc1OC` (stereo not drawn) [(I-24), N-{1-(indan-5-yl)-1-cyanomethyl}-3-{3-methoxy-4-(2-propynyloxy)phenyl}propanamide], the pest or weed control at 50 ppm worked out at 100%. On the same count and under the same terms, the figure for `C#CCOc1ccc(CCC(=O)NCc2ccc3c(c2)CCCC3)cc1OC` [(I-25), N-((5,6,7,8-tetrahydronaphthalene-2-yl)methyl)-3-(3-methoxy-4-(2-propynyloxy)phenyl)propanamide] is 100%; for `C#CCOc1ccc(CCC(=S)NCc2ccc3c(c2)CCCC3)cc1OC` [(I-26), N-(5,6,7,8-tetrahydronaphthalene-2-ylmethyl)-3-(3-methoxy-4-(2-propynyloxy)phenyl}propanthioamide] it is 100%.

As to `C#CCOc1ccc(CCC(=O)NC(C#N)c2ccc3c(c2)CCCC3)cc1OC` (stereo not drawn) [(I-27), N-{1-(5,6,7,8-tetrahydronaphthalene-2-yl)-1-cyanomethyl}-3-(3-methoxy-4-(2-propyonyloxy)phenyl)propanamide], the Actual protective value is on record as 100%. Consider `C#CCOc1ccc(CCC(=O)NCc2ccc3ccccc3c2)cc1OC` [(I-28), N-{(naphthalene-2-yl)methyl}-3-{3-methoxy-4-(2-propynyloxy)phenyl}propanamide], for which the pest or weed control at 50 ppm worked out at 100%. The same measure, in the same setting: the figure for `C#CCOc1ccc(CCC(=S)NCc2ccc3ccccc3c2)cc1OC` [(I-29), N-{(naphthalene-2-yl)methyl}-3-{3-methoxy-4-(2-propynyloxy)phenyl)propanthioamide] is 100%. For `COc1ccc(C(=CC(=O)N2CCOCC2)c2ccc(Cl)cc2)cc1OC` [dimethomorph, 4-[3-(4-chlorophenyl)-3-(3,4-dimethoxyphenyl)acryloyl]morph oline, reference compound], the pest or weed control at 50 ppm is 100%.
